From ChEMBL document CHEMBL5625250, “Discovery of novel flavonoid-based CDK9 degraders for prostate cancer treatment via a PROTAC strategy” (Eur J Med Chem, 2023)
Converted amounts (≈) assume the structure as drawn. One block for each molecule: values may come before it. The source made the active and inactive calls. No cut-off for these calls is given here.

Experiments:
[1] = Toxicity in BALB/c mouse xenografted with human 22Rv1 cells assessed as mortality at 10 to 20 mg/kg, iv administered for 20 days; type: organism-based, CWR22R; conditions: in vivo, 480 h, dose 10-20 mg/kg, time 20 day
[2] = target: Cyclin-dependent kinase 5 (Homo sapiens) (UniProt Q00535); assay: Induction of CDK5 protein degradation in human 22Rv1 cells at 500 nM incubated for 12 hrs by Western blotting analysis; type: cell-based
Cyclin-dependent kinase 5 (Homo sapiens), sequence (Q00535 whole entry, looked up): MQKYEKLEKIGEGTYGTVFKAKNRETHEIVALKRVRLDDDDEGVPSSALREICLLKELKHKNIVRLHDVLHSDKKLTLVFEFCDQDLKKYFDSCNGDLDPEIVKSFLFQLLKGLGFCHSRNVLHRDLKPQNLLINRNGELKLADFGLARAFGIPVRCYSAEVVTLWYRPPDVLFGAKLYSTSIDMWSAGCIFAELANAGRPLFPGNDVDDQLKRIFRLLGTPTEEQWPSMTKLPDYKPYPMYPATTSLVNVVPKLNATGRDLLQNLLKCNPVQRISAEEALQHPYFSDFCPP

[3] = Metabolic stability in human liver microsome assessed as half life at 10 uM by LC-MS/MS analysis; type: ADME; conditions: liver microsomes
CWR22R [4] = assay: In vivo degradation of CDK9 protein level in human 22Rv1 cells xenografted in BALB/c mouse tumor at 20 mg/kg, iv administered for 18 days by immunohistochemistry analysis; type: functional, organism-based; conditions: time 18.0 day
[5] = Half life in Sprague-Dawley rat at 2 mg/kg, iv by LC-MS/MS analysis; type: ADME, organism-based; conditions: in vivo
[6] = Solubility of the compound in water at pH 7.4 by shake flask method; type: physicochemical
[7] = target: T1, Protein cereblon/Cyclin-dependent kinase 9 (Homo sapiens, UniProt P50750+Q96SW2); assay: PROTAC activity at CRBN/CDK9 in human 22Rv1 cells assessed as degradation of CDK9 protein at 0.1 uM incubated for 12 hrs in presence of thalidomide by Western blotting analysis; type: cell-based
Target sequence in this assay (P50750 whole entry, looked up): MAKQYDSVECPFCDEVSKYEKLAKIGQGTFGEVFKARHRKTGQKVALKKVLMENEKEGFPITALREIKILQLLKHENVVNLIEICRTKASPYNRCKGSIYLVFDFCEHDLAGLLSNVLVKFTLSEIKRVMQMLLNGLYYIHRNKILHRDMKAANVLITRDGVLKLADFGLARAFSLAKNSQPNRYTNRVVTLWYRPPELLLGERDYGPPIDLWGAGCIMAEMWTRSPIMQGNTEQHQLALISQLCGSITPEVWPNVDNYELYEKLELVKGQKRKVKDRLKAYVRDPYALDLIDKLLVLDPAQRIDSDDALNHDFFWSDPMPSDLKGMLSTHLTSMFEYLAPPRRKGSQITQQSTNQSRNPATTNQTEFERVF
Target sequence in this assay (Q96SW2 whole entry, looked up): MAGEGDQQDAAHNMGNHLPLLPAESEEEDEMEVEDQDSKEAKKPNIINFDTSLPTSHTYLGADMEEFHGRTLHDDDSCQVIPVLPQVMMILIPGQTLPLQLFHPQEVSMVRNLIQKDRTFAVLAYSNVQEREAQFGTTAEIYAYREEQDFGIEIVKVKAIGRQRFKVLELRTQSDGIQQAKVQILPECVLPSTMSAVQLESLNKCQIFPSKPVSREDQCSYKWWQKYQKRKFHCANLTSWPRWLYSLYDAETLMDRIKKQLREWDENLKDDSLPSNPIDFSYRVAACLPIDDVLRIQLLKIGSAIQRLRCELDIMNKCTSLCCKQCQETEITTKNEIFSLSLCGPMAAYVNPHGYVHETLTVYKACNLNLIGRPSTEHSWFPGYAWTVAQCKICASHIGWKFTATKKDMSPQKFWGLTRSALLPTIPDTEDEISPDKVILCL

CWR22R [8] = assay: Antiproliferative activity against human 22Rv1 cells assessed as reduction in colony formation incubated for 2 weeks by crystal violet staining based assay; type: functional, cell-based; conditions: dose 7.8-62.5 nM
CWR22R [9] = assay: In vivo degradation of c-Myc protein level in human 22Rv1 cells xenografted in BALB/c mouse tumor at 20 mg/kg, iv administered for 18 days by immunohistochemistry analysis; type: functional, organism-based; conditions: time 18.0 day
CWR22R [10] = assay: In vivo degradation of Ki67 protein level in human 22Rv1 cells xenografted in BALB/c mouse tumor at 20 mg/kg, iv administered for 18 days by immunohistochemistry analysis; type: functional, organism-based; conditions: time 18.0 day
[11] = target: Cyclin-dependent kinase 4 (Homo sapiens) (UniProt P11802); assay: Induction of CDK4 protein degradation in human 22Rv1 cells at 500 nM incubated for 12 hrs by Western blotting analysis; type: cell-based
Cyclin-dependent kinase 4 (Homo sapiens), sequence (P11802 whole entry): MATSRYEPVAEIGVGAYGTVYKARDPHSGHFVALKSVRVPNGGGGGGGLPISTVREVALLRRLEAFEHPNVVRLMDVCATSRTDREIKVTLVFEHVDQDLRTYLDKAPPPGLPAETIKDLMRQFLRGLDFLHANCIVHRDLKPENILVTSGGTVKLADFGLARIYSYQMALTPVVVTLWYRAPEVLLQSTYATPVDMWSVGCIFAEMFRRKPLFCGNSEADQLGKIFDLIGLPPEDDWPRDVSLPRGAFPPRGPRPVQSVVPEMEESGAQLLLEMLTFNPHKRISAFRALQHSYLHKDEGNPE

[12] = target: T1, Protein cereblon/Cyclin-dependent kinase 9; assay: PROTAC activity at CRBN/CDK9 in human 22Rv1 cells assessed as degradation of CDK9 protein at 0.1 uM incubated for 12 hrs in presence of LWT-111 by Western blotting analysis; type: cell-based
Target sequence in this assay (P50750 whole entry, looked up): as the sequence (P50750 whole entry, looked up) above
Target sequence in this assay (Q96SW2 whole entry, looked up): as the sequence (Q96SW2 whole entry, looked up) above

CWR22R [13] = assay: In vivo degradation of Mcl-1 expression in human 22Rv1 cells xenografted in BALB/c mouse tumor at 20 mg/kg, iv administered for 18 days by Western blotting analysis; type: functional, organism-based; conditions: time 18.0 day
[14] = target: T1, Protein cereblon/Cyclin-dependent kinase 9; assay: PROTAC activity at CRBN/CDK9 in human 22Rv1 cells assessed as degradation of CDK9 protein at 0.1 uM incubated for 12 hrs in presence of MG132 by Western blotting analysis; type: cell-based
Target sequence in this assay (P50750 whole entry, looked up): as the sequence (P50750 whole entry, looked up) above
Target sequence in this assay (Q96SW2 whole entry, looked up): as the sequence (Q96SW2 whole entry, looked up) above

[15] = target: Cyclin-dependent kinase 2 (Homo sapiens) (UniProt P24941); assay: Induction of CDK2 protein degradation in human 22Rv1 cells at 500 nM incubated for 12 hrs by Western blotting analysis; type: cell-based
[16] = Apparent volume of distribution in Sprague-Dawley rat at 2 mg/kg, iv by LC-MS/MS analysis; type: ADME, organism-based; conditions: in vivo, read-out: Vz
[17] = target: T1, Protein cereblon/Cyclin-dependent kinase 9; assay: PROTAC activity at CRBN/CDK9 in human 22Rv1 cells assessed as degradation of CDK9 protein incubated for 12 hrs by Western blotting analysis; type: cell-based
[18] = target: T1, Protein cereblon/Cyclin-dependent kinase 9; assay: PROTAC activity at CRBN/CDK9 in human 22Rv1 cells assessed as degradation of CDK9 protein at 500 nM incubated for 12 hrs by Western blotting analysis; type: cell-based
Target sequence in this assay (P50750 whole entry, looked up): as the sequence (P50750 whole entry, looked up) above
Target sequence in this assay (Q96SW2 whole entry, looked up): as the sequence (Q96SW2 whole entry, looked up) above

[19] = target: T1, Protein cereblon/Cyclin-dependent kinase 9; assay: PROTAC activity at CRBN/CDK9 in human 22Rv1 cells assessed as degradation of CDK9 protein at 100 nM incubated for 12 hrs by Western blotting analysis relative to control; type: cell-based
Target sequence in this assay (P50750 whole entry, looked up): as the sequence (P50750 whole entry, looked up) above
Target sequence in this assay (Q96SW2 whole entry, looked up): as the sequence (Q96SW2 whole entry, looked up) above

[20] = AUC in Sprague-Dawley rat at 2 mg/kg, iv by LC-MS/MS analysis; type: ADME, organism-based; conditions: in vivo
[21] = target: T1, Protein cereblon/Cyclin-dependent kinase 9; assay: PROTAC activity at CRBN/CDK9 in human 22Rv1 cells assessed as degradation of CDK9 protein at 100 nM by Western blotting analysis; type: cell-based; conditions: time 2-24 hrs, TDE = time-dependent effect
Target sequence in this assay (P50750 whole entry, looked up): as the sequence (P50750 whole entry, looked up) above
Target sequence in this assay (Q96SW2 whole entry, looked up): as the sequence (Q96SW2 whole entry, looked up) above

[22] = target: T1, Protein cereblon/Cyclin-dependent kinase 9; assay: PROTAC activity at CRBN/CDK9 in human 22Rv1 cells assessed as reduction in RNAPII-ser 2 phosphorylation incubated for 24 hrs by Western blotting analysis; type: cell-based; conditions: dose 0.1-1.5 µM
[23] = Toxicity in BALB/c mouse xenografted with human 22Rv1 cells assessed as change in body weight at 20 mg/kg, iv administered for 20 days relative to control; type: organism-based, CWR22R; conditions: in vivo, 480 h, time 20 day
CWR22R [24] = assay: In vivo degradation of ARv7 expression in human 22Rv1 cells xenografted in BALB/c mouse tumor at 20 mg/kg, iv administered for 18 days by Western blotting analysis; type: functional, organism-based; conditions: time 18.0 day
CWR22R [25] = assay: In vivo degradation of c-Myc expression in human 22Rv1 cells xenografted in BALB/c mouse tumor at 20 mg/kg, iv administered for 18 days by Western blotting analysis; type: functional, organism-based; conditions: time 18.0 day
[26] = Toxicity in BALB/c mouse xenografted with human 22Rv1 cells assessed as change in body weight at 10 mg/kg, iv administered for 20 days relative to control; type: organism-based, CWR22R; conditions: in vivo, 480 h, time 20 day
CWR22R [27] = assay: Antitumor activity against human 22Rv1 cells xenografted in BALB/c mouse assessed as tumor growth inhibition at 20 mg/kg, iv administered for 20 days relative to control; type: functional; conditions: 22Rv1, 480 h, time 20 day, read-out: TGI
[28] = target: T2, Cyclin-dependent kinase 9 (Homo sapiens, UniProt P50750); assay: Inhibition of CDK9 (unknown origin) in presence of ATP by ADP-Glo kinase assay
T2 sequence (P50750 whole entry): as the sequence (P50750 whole entry, looked up) above

[29] = target: Cyclin-dependent kinase 7 (Homo sapiens) (UniProt P50613); assay: Induction of CDK7 protein degradation in human 22Rv1 cells at 500 nM incubated for 12 hrs by Western blotting analysis; type: cell-based
Cyclin-dependent kinase 7 (Homo sapiens), sequence (P50613 whole entry): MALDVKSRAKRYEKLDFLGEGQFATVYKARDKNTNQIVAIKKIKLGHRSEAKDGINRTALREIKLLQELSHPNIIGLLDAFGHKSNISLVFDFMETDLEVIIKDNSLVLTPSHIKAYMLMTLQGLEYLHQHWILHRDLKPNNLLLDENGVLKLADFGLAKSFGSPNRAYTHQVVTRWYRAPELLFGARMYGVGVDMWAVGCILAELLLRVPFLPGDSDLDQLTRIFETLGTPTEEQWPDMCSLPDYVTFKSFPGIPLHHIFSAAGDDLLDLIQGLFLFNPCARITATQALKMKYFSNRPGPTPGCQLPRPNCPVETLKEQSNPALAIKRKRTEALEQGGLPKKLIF

[30] = target: T1, Protein cereblon/Cyclin-dependent kinase 9; assay: PROTAC activity at CRBN/CDK9 in human 22Rv1 cells assessed as reduction in cyclin T1 expression at 0.1 to 1.5 uM incubated for 24 hrs by Western blotting analysis; type: cell-based; conditions: dose 0.1-1.5 µM
[31] = Solubility of the compound in water at pH 6.0 by shake flask method; type: physicochemical
[32] = target: T2, Cyclin-dependent kinase 9; assay: Inhibition of CDK9 (unknown origin) at 20 nM in presence of ATP by ADP-Glo kinase assay relative to control
[33] = target: T1, Protein cereblon/Cyclin-dependent kinase 9; assay: PROTAC activity at CRBN/CDK9 in human 22Rv1 cells assessed as reduction in Mcl-1 expression incubated for 24 hrs by Western blotting analysis; type: cell-based; conditions: dose 0.1-1.5 µM
CWR22R [34] = assay: Antitumor activity against human 22Rv1 cells xenografted in BALB/c mouse assessed as tumor growth inhibition at 10 mg/kg, iv administered for 20 days relative to control; type: functional; conditions: 22Rv1, 480 h, time 20 day, read-out: TGI
CWR22R [35] = assay: Antitumor activity against human 22Rv1 cells assessed as complete reduction in colony formation at 60 nM incubated for 2 weeks by crystal violet staining based assay; type: functional; design: scale not given: the % may be the effect or the level left
[36] = target: T1, Protein cereblon/Cyclin-dependent kinase 9; assay: PROTAC activity at CRBN/CDK9 in human 22Rv1 cells assessed as reduction in c-Myc expression incubated for 24 hrs by Western blotting analysis; type: cell-based; conditions: dose 0.1-1.5 µM
[37] = target: Cyclin-dependent kinase 6 (Homo sapiens) (UniProt Q00534); assay: Induction of CDK6 protein degradation in human 22Rv1 cells at 500 nM incubated for 12 hrs by Western blotting analysis; type: cell-based
Cyclin-dependent kinase 6 (Homo sapiens), sequence (Q00534 whole entry): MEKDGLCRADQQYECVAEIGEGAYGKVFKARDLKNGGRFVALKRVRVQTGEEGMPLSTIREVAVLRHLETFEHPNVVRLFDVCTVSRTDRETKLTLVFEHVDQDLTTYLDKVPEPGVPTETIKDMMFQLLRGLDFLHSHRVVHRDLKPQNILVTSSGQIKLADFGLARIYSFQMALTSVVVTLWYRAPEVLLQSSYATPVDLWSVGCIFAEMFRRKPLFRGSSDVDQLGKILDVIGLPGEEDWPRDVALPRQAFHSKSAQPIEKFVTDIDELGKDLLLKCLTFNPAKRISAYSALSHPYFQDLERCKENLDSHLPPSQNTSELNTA

CWR22R [38] = assay: Antitumor activity against human 22Rv1 cells assessed as complete reduction in colony formation incubated for 2 weeks by crystal violet staining based assay; type: functional, cell-based; conditions: dose 7.8-62.5 nM
CWR22R [39] = assay: Antiproliferative activity against human 22Rv1 cells assessed as reduction in cell viability incubated for 72 hrs by SRB assay; type: functional, cell-based; conditions: 22Rv1, 72 h
CWR22R [40] = assay: In vivo degradation of CDK9 expression in human 22Rv1 cells xenografted in BALB/c mouse tumor at 20 mg/kg, iv administered for 18 days by Western blotting analysis; type: functional, organism-based; conditions: time 18.0 day
[41] = target: T1, Protein cereblon/Cyclin-dependent kinase 9; assay: PROTAC activity at CRBN/CDK9 in human 22Rv1 cells assessed as degradation of CDK9 protein at 20 nM incubated for 12 hrs by Western blotting analysis relative to control; type: cell-based
[42] = target: T1, Protein cereblon/Cyclin-dependent kinase 9; assay: PROTAC activity at CRBN/CDK9 in human 22Rv1 cells assessed as degradation of CDK9 protein at 100 nM incubated for 12 hrs by Western blotting analysis; type: cell-based

solubility thermodynamic [6]: 21 µg/mL (≈ 25.8 µM)
solubility thermodynamic [31]: < 10 µg/mL
inhibition [32]: 90.4%
Activity [41]: > 50%
Compound: COc1cc(O)c2c(=O)cc(-c3ccc(N4CCN(C(=O)C5CCN(c6ccc7c(c6)C(=O)N(C6CCC(=O)NC6=O)C7=O)CC5)CC4)cc3)oc2c1C1=CCN(C)CC1 (stereo not given)
IC50 (CWR22R [39]): 20 nM

solubility thermodynamic [6]: 41 µg/mL (≈ 51.2 µM)
solubility thermodynamic [31]: 193 µg/mL (≈ 241 µM)
inhibition [32]: 89.3%
Compound: COc1cc(O)c2c(=O)cc(-c3ccc(N4CCN(CC5CCN(c6cccc7c6C(=O)N(C6CCC(=O)NC6=O)C7=O)CC5)CC4)cc3)oc2c1C1=CCN(C)CC1 (stereo not given)
IC50 (CWR22R [39]): 70 nM

solubility thermodynamic [6]: 21 µg/mL (≈ 27.6 µM)
Activity [19]: 80%
solubility thermodynamic [31]: < 10 µg/mL
inhibition [32]: 84.1%
Compound: COc1cc(O)c2c(=O)cc(-c3ccc(N4CCN(C(=O)CNc5cccc6c5C(=O)N(C5CCC(=O)NC5=O)C6=O)CC4)cc3)oc2c1C1=CCN(C)CC1 (stereo not given)
IC50 (CWR22R [39]): 100 nM

Continued, molecule first:

Compound: COc1cc(O)c2c(=O)cc(-c3ccc(N4CCN(CC5CCN(c6ccc7c(c6)C(=O)N(C6CCC(=O)NC6=O)C7=O)CC5)CC4)cc3)oc2c1C1=CCN(C)CC1 (stereo not given)
Activity [1]: Non-Toxic
Activity [2]: inactive
half-life at 10 µM [3]: 1.62 h
Activity (CWR22R [4]): Active
half-life [5]: 11.1 h
solubility thermodynamic [6]: 53 µg/mL (≈ 66.2 µM)
Activity [7]: inactive
Activity (CWR22R [8]): Dose-Dependent Effect
Activity (CWR22R [9]): Active
Activity (CWR22R [10]): Active
Activity [11]: inactive
Activity [12]: inactive
Activity (CWR22R [13]): Active
Activity [14]: inactive
Activity [15]: inactive
Vd [16]: 22.6 L/kg
Activity [17]: Dose-Dependent Effect
DC50 [17]: 43 nM
Activity [18]: 100%
Activity [19]: 80%
AUC [20]: 681 ng·h/mL
Activity [21]: Tde
Activity [22]: Dose-Dependent Effect
Activity [23]: 15.3%
Activity (CWR22R [24]): Active
Activity (CWR22R [25]): Active
Activity [26]: 12.5%
inhibition in vivo at 20 mg/kg (CWR22R [27]): 75.1%
IC50 [28]: 3.3 nM
Activity [29]: inactive
Activity [30]: Active
solubility thermodynamic [31]: 125 µg/mL (≈ 156 µM)
inhibition [32]: 85.6%
Activity [33]: Dose-Dependent Effect
inhibition in vivo at 10 mg/kg (CWR22R [34]): 65.7%
Activity (CWR22R [35]): 100%
Activity [36]: Dose-Dependent Effect
Activity [37]: inactive
Activity (CWR22R [38]): Dose-Dependent Effect
IC50 (CWR22R [39]): 60 nM
Activity (CWR22R [40]): Active

Compound: COc1cc(O)c2c(=O)cc(-c3ccc(N4CCN(C(=O)CCCCCCCCCOc5cccc6c5C(=O)N(C5CCC(=O)NC5=O)C6=O)CC4)cc3)oc2c1C1=CCN(C)CC1 (stereo not given)
solubility thermodynamic [6]: < 10 µg/mL
Activity [42]: Active
solubility thermodynamic [31]: < 10 µg/mL
inhibition [32]: 34.2%
IC50 (CWR22R [39]): 120 nM

Compound: COc1cc(O)c2c(=O)cc(-c3ccc(N4CCN(C(=O)CCCOc5cccc6c5C(=O)N(C5CCC(=O)NC5=O)C6=O)CC4)cc3)oc2c1C1=CCN(C)CC1 (stereo not given)
solubility thermodynamic [6]: < 10 µg/mL
Activity [42]: Active
solubility thermodynamic [31]: < 10 µg/mL
inhibition [32]: 79%
IC50 (CWR22R [39]): 410 nM
